pIC50, pKi: −log10 of the molar value.
What was measured:
[1] = target: EGFR (human) (UniProt P00533); settings: A431
[2] = target: EGFR (mouse) (UniProt P00533); settings: balb/mk cells
[3] = target: EGFR (human) (UniProt P00533); settings: a431
[4] = target: EGFR (UniProt P00533)
[5] = target: EGFR (human) (UniProt P00533); settings: for inhibition: a431, concentration not given here
[6] = target: EGFR (UniProt P00533); remark: listed apart in the source
[7] = target: EGFR (human) (UniProt P00533); settings: A431; remark: listed apart in the source
[8] = target: EGFR (UniProt P00533); remark: listed apart in the source

Sequence of EGFR (P00533 whole entry, looked up): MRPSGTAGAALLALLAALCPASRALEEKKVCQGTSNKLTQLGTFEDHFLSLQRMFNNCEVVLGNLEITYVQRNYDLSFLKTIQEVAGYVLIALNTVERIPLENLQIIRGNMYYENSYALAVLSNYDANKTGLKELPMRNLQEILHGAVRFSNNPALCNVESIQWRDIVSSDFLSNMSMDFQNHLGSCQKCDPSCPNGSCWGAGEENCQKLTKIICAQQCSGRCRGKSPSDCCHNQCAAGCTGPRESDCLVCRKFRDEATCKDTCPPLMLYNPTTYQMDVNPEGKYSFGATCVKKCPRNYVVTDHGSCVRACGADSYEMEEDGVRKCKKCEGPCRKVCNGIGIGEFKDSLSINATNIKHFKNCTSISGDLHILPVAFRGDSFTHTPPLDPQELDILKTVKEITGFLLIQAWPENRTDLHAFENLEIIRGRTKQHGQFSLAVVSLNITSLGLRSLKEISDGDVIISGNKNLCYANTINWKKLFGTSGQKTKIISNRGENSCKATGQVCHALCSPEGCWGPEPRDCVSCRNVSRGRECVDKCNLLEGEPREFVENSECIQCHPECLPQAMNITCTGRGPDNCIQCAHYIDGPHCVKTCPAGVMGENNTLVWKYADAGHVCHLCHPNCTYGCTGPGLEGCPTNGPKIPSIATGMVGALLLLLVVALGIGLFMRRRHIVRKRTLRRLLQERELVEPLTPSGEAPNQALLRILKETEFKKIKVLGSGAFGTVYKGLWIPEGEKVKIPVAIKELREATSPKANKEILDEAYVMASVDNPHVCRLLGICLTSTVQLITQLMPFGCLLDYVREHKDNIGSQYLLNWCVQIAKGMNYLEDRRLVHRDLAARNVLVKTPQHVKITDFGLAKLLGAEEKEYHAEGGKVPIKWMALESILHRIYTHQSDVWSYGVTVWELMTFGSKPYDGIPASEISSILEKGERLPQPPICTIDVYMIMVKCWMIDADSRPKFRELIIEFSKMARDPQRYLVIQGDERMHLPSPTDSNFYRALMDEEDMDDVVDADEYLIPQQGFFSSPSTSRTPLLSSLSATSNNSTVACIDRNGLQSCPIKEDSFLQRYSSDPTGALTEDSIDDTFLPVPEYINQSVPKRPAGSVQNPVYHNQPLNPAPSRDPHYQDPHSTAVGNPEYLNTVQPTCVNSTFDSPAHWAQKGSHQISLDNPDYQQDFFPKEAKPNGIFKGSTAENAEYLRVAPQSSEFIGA
Sequence of EGFR (human) (P00533 whole entry, looked up): as above

| SMILES | pIC50 [1] | pIC50 [2] | pIC50 [3] | inhibition [5] [%] | further results |
| --- | --- | --- | --- | --- | --- |
| C=C(C)CN1C(=O)C(CN(C)C)SC1=NN=C1SCC(=O)N1C (centres undefined) | 5.70 | 6.01 | 5.79 | – | – |
| CC(=S)N/C(C#N)=C/c1ccc(O)c(O)c1 | – | – | – | – | pIC50 [4]: 5.62; pKi [4]: 6.07 |
| C=C(C)CN1C(=O)C(OS(=O)(=O)O)SC1=NN=C1SCC(=O)N1C (centres undefined) | 4.00 | < 4.30 | < 4.30 | 0 | – |
| C=C(C)CN1C(=O)C(C)SC1=NN=C1SCC(=O)N1C (centres undefined) | < 4.30 | < 4.30 | < 4.30 | 0 | – |
| N#CC(C#N)=Cc1cc(O)cc(O)c1 | 4.38 | – | – | – | pIC50 [4]: 4.46; pKi [4]: 4.96 |
| C=CCN1C(=O)C(CC(=O)O)SC1=NN=C1SCC(=O)N1C (centres undefined) | < 4.00 | < 4.30 | < 4.30 | 0 | – |
| O=CN/C=C/c1cc(O)ccc1O | 4.90 | – | – | – | pKi [6]: 5.22 |
| C=C(C)CN1C(=O)C(CO)SC1=NN=C1SCC(=O)N1C (centres undefined) | < 4.30 | < 4.30 | 4.39 | 0 | – |
| C=C(C)CN1C(=O)C(=C)SC1=NN=C1SCC(=O)N1C | 6.00 | 6.00 | 5.81 | – | pIC50 [7]: 5.30; pIC50 ([5]; a431): 4.60 to 4.90 |
| C=C(C)CN1C(=O)C(O)SC1=NN=C1SCC(=O)N1C (centres undefined) | < 4.00 | < 4.30 | < 4.30 | 0 | – |
| C=C(C)CN1C(=O)CSC1=NN=C1SCC(=O)N1C | < 4.30 | < 4.30 | < 4.30 | 0 | – |
| CCOc1cc(/C=C(/C#N)C(N)=O)cc(Cc2ccccc2)c1O | 5.05 | – | – | – | pIC50 [8]: 6.00; pKi [8]: 5.68 |
| C=CCN1C(=O)C(=C)SC1=NN=C1SCC(=O)N1C | 5.22 | 5.99 | 5.82 | – | – |
| C=CCN1C(=O)C(C)SC1=NN=C1SCC(=O)N1C (centres undefined) | < 4.30 | < 4.30 | < 4.30 | 0 | – |

Reference: the Kinase Knowledgebase extract (Sharma et al. 2016)
